pIC50, pKd: −log10 of the molar value. Calls of active or inactive are those of the source. No cut-off for these calls is given here.
What was measured:
Tumor necrosis factor [1] = molecular target: T1, Tumor necrosis factor (Homo sapiens, UniProt P01375); assay: Inhibition of human TNFalpha induced NFkappaB activation in HEK293T cells after 6 hrs by dual-glo luciferase assay; type: cell-based; conditions: for inhibition: HEK-293T
Tumor necrosis factor [2] = molecular target: T1, Tumor necrosis factor; assay: Inhibition of human TNFalpha expressed in Escherichia coli assessed as increase in TNFalpha monomer level after 15 mins by SDS-PAGE analysis
Tumor necrosis factor [3] = molecular target: T1, Tumor necrosis factor; assay: Inhibition of human TNFalpha expressed in Escherichia coli assessed as trimer to dimer transition at 5 uM measured after 12 hrs by mass spectrometry
Tumor necrosis factor [4] = molecular target: T1, Tumor necrosis factor; assay: Inhibition of human TNFalpha expressed in Escherichia coli assessed as decrease in TNF-alpha trimer level after 15 mins by SDS-PAGE analysis
Tumor necrosis factor [5] = molecular target: T1, Tumor necrosis factor; assay: Inhibition of human TNFalpha expressed in Escherichia coli assessed as increase in TNF-alpha dimer level after 15 mins by SDS-PAGE analysis
Tumor necrosis factor [6] = molecular target: T1, Tumor necrosis factor; assay: Binding affinity to human TNFalpha expressed in Escherichia coli by surface plasmon resonance method
[7] = Cytotoxicity against HEK293T cells at >300 uM after 24 hrs by CCK8 assay; type: cell-based; conditions: human, hek-293t
[8] = Cytotoxicity against HEK293T cells assessed as cell death at 30 uM after 24 hrs by CCK8 assay; type: cell-based; conditions: human, hek-293t

T1 sequence (P01375 whole entry): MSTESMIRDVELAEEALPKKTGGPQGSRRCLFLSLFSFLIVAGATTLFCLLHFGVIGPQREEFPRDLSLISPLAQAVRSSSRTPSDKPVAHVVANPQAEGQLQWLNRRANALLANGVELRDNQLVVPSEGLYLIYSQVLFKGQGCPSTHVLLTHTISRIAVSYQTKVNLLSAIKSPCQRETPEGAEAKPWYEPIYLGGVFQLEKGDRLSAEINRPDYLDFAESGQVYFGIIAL

Row | Compound | inhibition (Tumor necrosis factor [1]) | inhibition (Tumor necrosis factor [2]) | inhibition (Tumor necrosis factor [3]) | inhibition (Tumor necrosis factor [4]) | inhibition (Tumor necrosis factor [5]) | pKd (Tumor necrosis factor [6]) | Activity [7] | pIC50 (Tumor necrosis factor [1]) | mortality [8] [%]
1 | H-DAEDELKRNWQAIQEFQQILQMFFEWWQKD-OH | inactive | – | – | – | – | – | – | – | –
2 | CC[C@@H](C)[C@H](NC(=O)[C@H](CCC(N)=O)NC(=O)[C@H](CCC(N)=O)NC(=O)[C@H](Cc1ccccc1)NC(=O)[C@H](CCC(=O)O)NC(=O)[C@H](CCC(N)=O)NC(=O)[C@@H](NC(=O)[C@H](CCC(=O)O)NC(=O)[C@H](CCC(N)=O)NC(=O)[C@@H](Cc1c[nH]c2ccccc12)NC(=O)[C@H](CC(N)=O)NC(=O)[C@H](CCCNC(=N)N)NC(=O)[C@H](CCCCN)NC(=O)[C@H](CC(C)C)NC(=O)[C@H](CCC(=O)O)NC(=O)[C@H](CC(=O)O)NC(=O)[C@H](CCC(=O)O)NC(=O)[C@H](C)NC(=O)[C@H](N)CC(=O)O)[C@@H](C)CC)C(=O)N[C@@H](C)C(=O)N[C@@H](CCC(N)=O)C(=O)N[C@@H](CCSC)C(=O)N[C@@H](Cc1ccccc1)C(=O)N[C@@H](Cc1ccccc1)C(=O)N[C@@H](CCC(=O)O)C(=O)N[C@@H](Cc1c[nH]c2ccccc12)C(=O)N[C@@H](Cc1c[nH]c2ccccc12)C(=O)N[C@@H](CCC(N)=O)C(=O)N[C@H](CCCCN)C(=O)N[C@@H](CC(=O)O)C(=O)O | inactive | – | – | – | – | – | – | – | –
3 | H-QEKWFAEQYARMVLEWIEKELKESL-OH | Dose-dependent effect | Active | Active | Active | Active | 6.30 | Non-toxic | 4.68 | –
4 | CC[C@H](C)[C@H](NC(=O)[C@H](CCC(N)=O)NC(=O)[C@H](CCC(N)=O)NC(=O)[C@H](Cc1ccccc1)NC(=O)[C@H](CCC(=O)O)NC(=O)[C@H](CCC(N)=O)NC(=O)[C@@H](NC(=O)[C@H](CCC(=O)O)NC(=O)[C@H](CCC(N)=O)NC(=O)[C@H](Cc1c[nH]c2ccccc12)NC(=O)[C@H](CC(N)=O)NC(=O)[C@H](CCCNC(=N)N)NC(=O)[C@H](CCCCN)NC(=O)[C@H](CC(C)C)NC(=O)[C@H](CCC(=O)O)NC(=O)[C@H](CC(=O)O)NC(=O)[C@H](CCC(=O)O)NC(=O)[C@H](C)NC(=O)[C@@H](N)CC(=O)O)[C@@H](C)CC)C(=O)N[C@@H](CC(C)C)C(=O)N[C@@H](CCC(N)=O)C(=O)N[C@@H](CCSC)C(=O)N[C@@H](Cc1ccccc1)C(=O)N[C@@H](Cc1ccccc1)C(=O)N[C@@H](CCC(=O)O)C(=O)N[C@@H](Cc1c[nH]c2ccccc12)C(=O)N[C@@H](Cc1c[nH]c2ccccc12)C(=O)N[C@@H](CCC(N)=O)C(=O)N[C@@H](CCCCN)C(=O)N[C@@H](CC(=O)O)C(=O)O | – | – | – | – | – | 6.41 | Non-toxic | 4.92 | –
5 | CC[C@@H](C)[C@H](NC(=O)[C@H](CCC(=O)O)NC(=O)[C@H](CCC(N)=O)NC(=O)[C@@H](Cc1c[nH]c2ccccc12)NC(=O)[C@@H](CC(N)=O)NC(=O)[C@@H](CCCNC(=N)N)NC(=O)[C@@H](CCCCN)NC(=O)[C@@H](CC(C)C)NC(=O)[C@@H](CCC(=O)O)NC(=O)[C@@H](CC(=O)O)NC(=O)[C@@H](CCC(=O)O)NC(=O)[C@@H](C)NC(=O)[C@@H](N)CC(=O)O)C(=O)N[C@@H](CCC(N)=O)C(=O)N[C@@H](CCC(=O)O)C(=O)N[C@@H](C)C(=O)N[C@@H](CCC(N)=O)C(=O)N[C@@H](CCC(N)=O)C(=O)N[C@H](C(=O)N[C@@H](CC(C)C)C(=O)N[C@@H](CCC(N)=O)C(=O)N[C@@H](CCSC)C(=O)N[C@@H](Cc1ccccc1)C(=O)N[C@@H](Cc1ccccc1)C(=O)N[C@@H](CCC(=O)O)C(=O)N[C@@H](Cc1c[nH]c2ccccc12)C(=O)N[C@H](Cc1c[nH]c2ccccc12)C(=O)N[C@H](CCC(N)=O)C(=O)N[C@@H](CCCCN)C(=O)N[C@H](CC(=O)O)C(=O)O)[C@@H](C)CC | inactive | – | – | – | – | – | – | – | –
6 | H-SEQELKQIFQQVFQWWQLWEQFEKQ-OH | – | Active | Active | Active | Active | – | – | – | –
7 | H-RQQEELYKKWLQEFWKWFQIALQLD-OH | Dose-dependent effect | Active | Active | Active | Active | 6.30 | Non-toxic | 4.49 | –
8 | CC[C@@H](C)[C@@H](NC(=O)[C@@H](CCC(N)=O)NC(=O)[C@@H](CCC(N)=O)NC(=O)[C@@H](Cc1ccccc1)NC(=O)[C@@H](CCC(=O)O)NC(=O)[C@@H](CCC(N)=O)NC(=O)[C@H](NC(=O)[C@@H](CCC(=O)O)NC(=O)[C@@H](CCC(N)=O)NC(=O)[C@H](Cc1c[nH]c2ccccc12)NC(=O)[C@H](CC(N)=O)NC(=O)[C@H](CCCNC(=N)N)NC(=O)[C@H](CCCCN)NC(=O)[C@H](CC(C)C)NC(=O)[C@H](CCC(=O)O)NC(=O)[C@H](CC(=O)O)NC(=O)[C@H](CCC(=O)O)NC(=O)[C@H](C)NC(=O)[C@H](N)CC(=O)O)[C@@H](C)CC)C(=O)N[C@H](CC(C)C)C(=O)N[C@H](CCC(N)=O)C(=O)N[C@H](CCSC)C(=O)N[C@H](Cc1ccccc1)C(=O)N[C@H](Cc1ccccc1)C(=O)N[C@H](CCC(=O)O)C(=O)N[C@H](Cc1c[nH]c2ccccc12)C(=O)N[C@@H](Cc1c[nH]c2ccccc12)C(=O)N[C@@H](CCC(N)=O)C(=O)N[C@H](CCCCN)C(=O)N[C@@H](CC(=O)O)C(=O)O | Dose-dependent effect | Active | Active | Active | Active | – | – | – | –
9 | Cc1cc2occ(CN(C)CCN(C)Cc3cn(-c4cccc(C(F)(F)F)c4)c4ccccc34)c(=O)c2cc1C | – | – | – | – | – | – | – | – | 50
10 | H-LREQRLKEHLQEIQIFEQWLQIFQEQFQKF-OH | inactive | – | – | – | – | 6.30 | Non-toxic | – | –
